# Where “and” joins values, the source holds several entries; their conditions need not be identical. Equal entries are not always repeated. Where two headings read alike, the source gives them in different places.
# Tests used:
# [1] = not given; remark: listed apart in the source
# [2] = females, feces collected in the fourth week of the in vivo study, label = diet group, LOD 0.1 µg/kg
# [3] = males, feces collected in the fourth week of the in vivo study, label = diet group, LOD 0.1 µg/kg
Molecule,Concentration of AFB1 in rat feces [2],Concentration of AFB1 in rat feces [3],"Concentration of OTA in rat feces [1, 2]","Concentration of OTA in rat feces [1, 3]","Concentration of AFB1 in rat feces (rat, in vivo)","Concentration of OTA in rat feces ([1]; rat, in vivo)"
"C[C@@H]1Cc2c(Cl)cc(C(=O)N[C@@H](Cc3ccccc3)C(=O)O)c(O)c2C(=O)O1 [OTA, ochratoxin A]",<LOD,<LOD,933 ± 512 µg mycotoxin/kg dry feces,1729 ± 712 µg mycotoxin/kg dry feces,–,–
aflatoxin B1 [AFB1],–,–,–,–,52 ± 61 µg mycotoxin/kg dry feces and 91 ± 77 µg mycotoxin/kg dry feces,<LOD

# Source: article PMC11821233, “Impact of Bioactive Ingredients on the Fecal Excretion of Aflatoxin B1 and Ochratoxin A in Wistar Rats” (Molecules, 2025)
